Test [1] has as its target cGMP-inhibited 3',5'-cyclic phosphodiesterase 3A (Homo sapiens, UniProt Q14432). In kind it is functional.
The target in a further test is T1, Thromboxane A2 receptor (Homo sapiens, UniProt P21731).
T1 sequence (P21731 whole entry): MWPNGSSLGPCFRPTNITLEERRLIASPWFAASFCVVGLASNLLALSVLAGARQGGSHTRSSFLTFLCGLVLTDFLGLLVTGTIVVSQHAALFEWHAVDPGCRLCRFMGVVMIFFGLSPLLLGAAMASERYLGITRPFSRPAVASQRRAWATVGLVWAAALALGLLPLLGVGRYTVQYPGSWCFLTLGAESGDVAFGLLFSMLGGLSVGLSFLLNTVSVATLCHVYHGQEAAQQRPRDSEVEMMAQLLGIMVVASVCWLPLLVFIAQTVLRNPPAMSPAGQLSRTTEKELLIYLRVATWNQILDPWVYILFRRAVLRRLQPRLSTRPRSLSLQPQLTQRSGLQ
The test is classed as functional, cell-based.

For another test, the target named is Mu-type opioid receptor (Homo sapiens, UniProt P35372).

SMILES strings stand for the structures.
Note: assay procedure not described here.

Sequence of cGMP-inhibited 3',5'-cyclic phosphodiesterase 3A (Q14432 whole entry): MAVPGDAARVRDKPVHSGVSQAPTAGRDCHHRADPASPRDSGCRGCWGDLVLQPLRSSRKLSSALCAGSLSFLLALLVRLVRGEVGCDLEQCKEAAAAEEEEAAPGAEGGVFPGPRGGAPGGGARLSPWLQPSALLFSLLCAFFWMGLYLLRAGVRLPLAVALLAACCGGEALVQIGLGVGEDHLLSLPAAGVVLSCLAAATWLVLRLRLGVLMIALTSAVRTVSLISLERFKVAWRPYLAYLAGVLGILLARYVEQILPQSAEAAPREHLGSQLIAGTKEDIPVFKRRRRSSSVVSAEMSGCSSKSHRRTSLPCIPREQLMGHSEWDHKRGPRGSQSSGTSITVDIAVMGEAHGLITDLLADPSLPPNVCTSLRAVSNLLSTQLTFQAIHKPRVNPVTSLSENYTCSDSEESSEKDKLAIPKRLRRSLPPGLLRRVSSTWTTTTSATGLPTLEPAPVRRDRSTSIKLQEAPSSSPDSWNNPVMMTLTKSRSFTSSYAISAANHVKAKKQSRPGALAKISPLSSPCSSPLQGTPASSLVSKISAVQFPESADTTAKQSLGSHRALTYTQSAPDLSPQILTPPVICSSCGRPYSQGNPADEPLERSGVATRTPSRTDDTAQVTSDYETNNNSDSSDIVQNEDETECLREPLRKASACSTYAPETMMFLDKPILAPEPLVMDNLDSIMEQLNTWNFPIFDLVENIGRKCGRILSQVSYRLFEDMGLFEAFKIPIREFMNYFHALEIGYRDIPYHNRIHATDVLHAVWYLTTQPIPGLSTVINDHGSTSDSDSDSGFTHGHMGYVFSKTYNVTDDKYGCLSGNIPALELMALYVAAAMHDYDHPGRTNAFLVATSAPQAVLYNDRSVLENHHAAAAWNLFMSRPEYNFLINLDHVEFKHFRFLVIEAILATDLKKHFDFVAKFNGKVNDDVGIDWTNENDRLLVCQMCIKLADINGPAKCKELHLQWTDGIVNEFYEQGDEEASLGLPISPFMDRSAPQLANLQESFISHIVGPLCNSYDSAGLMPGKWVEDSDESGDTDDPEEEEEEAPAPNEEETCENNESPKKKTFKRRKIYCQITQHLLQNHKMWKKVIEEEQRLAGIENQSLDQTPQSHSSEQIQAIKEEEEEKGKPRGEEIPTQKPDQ
Sequence of Mu-type opioid receptor (P35372 whole entry): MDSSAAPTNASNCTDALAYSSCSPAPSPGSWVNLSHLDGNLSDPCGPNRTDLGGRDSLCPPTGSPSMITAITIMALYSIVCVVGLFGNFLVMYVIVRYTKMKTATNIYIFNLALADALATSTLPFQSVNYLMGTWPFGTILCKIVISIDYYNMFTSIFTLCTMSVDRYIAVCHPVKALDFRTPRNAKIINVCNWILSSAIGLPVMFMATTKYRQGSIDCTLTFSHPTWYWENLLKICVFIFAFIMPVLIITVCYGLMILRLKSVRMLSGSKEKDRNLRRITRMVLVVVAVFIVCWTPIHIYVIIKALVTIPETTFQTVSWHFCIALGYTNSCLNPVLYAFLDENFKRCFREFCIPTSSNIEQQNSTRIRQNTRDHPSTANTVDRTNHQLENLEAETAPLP

What is called AC50 is the midpoint of the concentration-response curve, whichever way the signal moves. Higher therefore signals activity only at high concentration. Take `Cc1cc(O)cc(C)c1Cl` [CHLOROXYLENOL]: the AC50 (in test [1]; at Thromboxane A2 receptor; at Mu-type opioid receptor) was above 30 µM each time.

In the case of `Cc1c(-c2ccccc2)oc2c(C(=O)OCCN3CCCCC3)cccc2c1=O` [FLAVOXATE], the AC50 in test [1] is above 30 µM; at Thromboxane A2 receptor, above 30 µM; on Mu-type opioid receptor, 3.05 µM.

`C[N+]1(C)[C@@H]2C[C@@H](OC(=O)[C@H](CO)c3ccccc3)C[C@H]1[C@@H]1O[C@@H]12` [METHSCOPOLAMINE]: the half-maximal activity concentration (AC50) (in test [1]; on Thromboxane A2 receptor; at Mu-type opioid receptor) was above 30 µM in each case.

`CN1CCCC(CN2c3ccccc3Sc3ccccc32)C1` (stereo unspecified) [MEPAZINE]: the AC50 in test [1] was above 30 µM; at Thromboxane A2 receptor, above 30 µM; at Mu-type opioid receptor, 6.07 µM.

Regarding `OC[C@@H](O)[C@@H](O)[C@H](O)[C@H](O)CO` [MANNITOL], the AC50 (in test [1]; at Thromboxane A2 receptor; at Mu-type opioid receptor) was above 30 µM in each case.

On to `CC1(C)O[C@@H]2C[C@H]3[C@@H]4C[C@H](F)C5=CC(=O)CC[C@]5(C)[C@H]4[C@@H](O)C[C@]3(C)[C@]2(C(=O)CO)O1` [FLURANDRENOLIDE], for which the AC50 (in test [1]; on Thromboxane A2 receptor; at Mu-type opioid receptor) was above 30 µM in each case.

In the case of `CCC(=O)O[C@H]1[C@H](O[C@@H]2[C@@H](C)[C@H](O[C@H]3C[C@@](C)(OC)[C@@H](O)[C@H](C)O3)[C@@H](C)C(=O)O[C@H](CC)[C@@](C)(O)[C@H](O)[C@@H](C)C(=O)[C@H](C)C[C@@]2(C)O)O[C@H](C)C[C@@H]1N(C)C` [ERYTHROMYCIN PROPIONATE], the AC50 in test [1] is above 30 µM; at Thromboxane A2 receptor, above 30 µM; on Mu-type opioid receptor, 16.2 µM.

The values are drawn from ChEMBL document CHEMBL5291721, “A preclinical secondary pharmacology resource illuminates target-adverse drug reaction associations of marketed drugs” (Nat Commun, 2023).
